Assay [1] has as its system HSP105, HSP70, pHER2, total HER2 and EGR4-S expression. As to the kind of experiment: Western blot after treatment with cell stress activating compounds (FIG. 4E). It counts as cell-based. As to the method: The MCF10A cell line was obtained from the A.T.C.C. (Manassas, VA, U.S.A.) and cultured as described previously (Debnath et al., 2003). T47D cells, SkBr3 cells, Hs578T and HEK-293T cells were cultured as described by Nguyen et al (2013). MDA-361, ZR75-1, BT-474, MDA-453, MDA-468, MDA-231, BT549 and MCF7 cells were cultured in Dulbecco's Modified Eagle's medium supplemented with 10% (v/v) fetal bovine serum and 1% (w/v) penicillin/streptomycin. In addition, MCF7 growth media was supplemented with 10 ng/ml insulin. All stable cell lines were generated by retroviral or lentiviral transduction as per Debnath et al. (2003). Viral stocks were generated by transient transfection of appropriate viral packaging vectors into the HEK-293T cell line as described by Lang and colleagues (2012). Drugs/compounds used for treating the cells were purchased from commercial sources, including Lapatinib, Erlotinib, Gefinitib and AUY922 from Sigma, and Sulfurophane from Santa Cruz Biotechnology. HSF1-targeted shRNAmir (microRNA-adapted short hairpin RNA) vectors were constructed as described previously (Lang et al., 2012). EGR4-targeted shRNAmir were purchased from Millenium Science.
(§1) Generation of protein lysates from cells was performed according to a previously published protocol (Price et al., 2005). Equal concentrations of protein lysates were combined with loading buffer (Invitrogen) and sample reducing agent (Invitrogen), denatured for 5 minutes at 95° C. then separated through gel electrophoresis in a 4-to-12% Bis-Tris NuPAGE gel (Invitrogen) with 1×MES buffer (Invitrogen) and antioxidant (Invitrogen). Following separation, the proteins were electrophoretically transferred onto nitrocellulose membranes using the iBlot western detection stack/iBlot dry blotting system (Thermofisher) for seven minutes at 23V. All membranes were then processed at room temperature overnight using the […] (Thermofisher) containing primary antibodies, iBind wash solution and horseradish peroxidase-conjugated secondary antibodies. Blots were developed using Clarity Western ECL (Bio-RAD), and images were captured using a Fusion FX imaging machine (Vilber). All antibodies were purchased from commercial sources and included, anti-HSF1 (catalogue number SPA-901), anti-HSP27 (catalogue number SPA-800) and anti-HSP90a (catalogue number SPA-835) antibodies from Enzo Life Sciences; anti-HSP105/110 (catalogue number Sc-6241) antibody from Santa Cruz Biotechnology; anti-Ha-Ras (catalogue number 05-775) antibody from Merck Millipore; anti-actin (catalogue number MS-1295-P0) and anti-HSP70i (catalogue number MS-482-P0) antibodies from Thermo Scientific; anti-p53 (catalogue number 51-9002046) from BD Pharmingen; anti-pHER2/ErbB2 (catalogue number Ab53290), anti-pAkt (catalogue number MISCGENLAB), anti-pEGFR catalogue number SCZSC-12351), anti-total EGFR catalogue number SCZSC-120) from Abcam, anti-total Akt (catalogue number 9272) and anti-HER2/ErbB2 (catalogue number Ab134182) from Cell Signalling, anti-EGR4 (catalogue number AV38090) (Sigma), anti-EGR4 (catalogue number PA5-50496) (Thermofisher), and anti-EGR4 (catalogue number SC133540) (Santa Cruz).

In the next assay the test system is EGR4-S in HER2+ cells. As to the kind of experiment: Lapatinib treatment of HER2+ cells with elevated or lowered HSF1 (FIG. 15A/B). The class given is cell-based. The protocol:
as §1

In assay [2] the test system is EGR4-S in HER2+ breast cancer cells (SKBR3). As to the kind of experiment: EGR4-S expression in cells cultured in increasing Lapatinib concentrations over 7 weeks (FIG. 12). The class given is cell-based. The protocol: as §1
The cell line was cultured in increasing concentrations of Lapatinib over the course of seven weeks to investigate whether EGR4-S expression would be affected during prolonged treatment with Lapatinib.

The subject of assay [3] is HER signalling pathway (pHER2, pAKT, EGR4-S) in HER2+ breast cancer cells. The settings on record: for EGR4-S expression: increasing drug concentrations, FIG. 3.
Method: Generation of protein lysates from cells was performed according to a previously published protocol (Price et al., 2005). Equal concentrations of protein lysates were combined with loading buffer (Invitrogen) and sample reducing agent (Invitrogen), denatured for 5 minutes at 95° C. then separated through gel electrophoresis in a 4-to-12% Bis-Tris NuPAGE gel (Invitrogen) with 1×MES buffer (Invitrogen) and antioxidant (Invitrogen). Following separation, the proteins were electrophoretically transferred onto nitrocellulose membranes using the iBlot western detection stack/iBlot dry blotting system (Thermofisher) for seven minutes at 23V. All membranes were then processed at room temperature overnight using the iBlot Western system (Thermofisher) containing primary antibodies, iBind wash solution and horseradish peroxidase-conjugated secondary antibodies. Blots were developed using Clarity Western ECL (Bio-RAD), and images were captured using a Fusion FX imaging machine (Vilber).
The effect of modulators that target the HER signalling pathway (TKIs such as Lapatinib, Gefitinib and Erlotinib) on EGR4-S expression was examined.

5 compounds from patent publication US20230348987A1, “METHODS AND COMPOSITIONS FOR TREATING CANCER” (PROMETTRE RESEARCH PTY LTD, priority 2020, published 2023) can be followed below.

Each structure is given as a SMILES string. Entries after “also recorded” stand apart in the source; their conditions may differ.

Consider `CCNC(=O)c1noc(-c2cc(C(C)C)c(O)cc2O)c1-c1ccc(CN2CCOCC2)cc1` [AUY922], for which, in assay [1] (higher concentrations), the EGR4-S expression result was “decreased; also recorded: reducing EGR4-S expression”, the HSP105 expression entry is listed as “increased”, the pHER2 expression result is recorded as “decreased” and the “total HER2 expression” value was “decreased”.
`CS(=O)(=O)CCNCc1ccc(-c2ccc3ncnc(Nc4ccc(OCc5cccc(F)c5)c(Cl)c4)c3c2)o1` [Lapatinib]: the EGR4-S expression result in the assay on EGR4-S in HER2+ cells (HER2+ cells, dose-dependent, FIG. 15A) is given as “reduced EGR4-S expression in a dose-dependent manner”; in assay [2] (SKBR3, week 5, 300 nM Lapatinib, vs control), “less EGR4-S compared to the control”; in assay [2] (SKBR3, week 7, 600 nM Lapatinib) it was “returning to control levels”; in assay [2] (after 3 weeks of treatment, vs untreated control), “reduced levels of EGR4-S”; in assay [2] (prolonged treatment, vs untreated control cells), “unchanged”; in assay [3] it was “regulated”. Also, the “response of EGR4-S expression” value with EGR4-S in HER2+ cells (HSF1 levels lowered, equivalent doses, FIG. 15B) was “did not respond as readily”. For the same compound, the “reduction of EGR4-S expression” value with EGR4-S in HER2+ cells (with elevated HSF1, FIG. 15A) was “more pronounced”. Moreover, the “EGR4-S expression over time” value in assay [3] (different types of HER2+ breast cancer cells, FIG. 3B) is given as “maintained over time”.
Consider `C#Cc1cccc(Nc2ncnc3cc(OCCOC)c(OCCOC)cc23)c1` [Erlotinib], for which, in assay [3], the EGR4-S expression entry is on record as “regulated”.
As to `COc1cc2ncnc(Nc3ccc(F)c(Cl)c3)c2cc1OCCCN1CCOCC1` [Gefitinib], the EGR4-S expression result in assay [3] is on record as “regulated”.
Take `C[S+]([O-])CCCCN=C=S` (stereo not shown) [Sulfurophane, Sulforaphane]: the HSP70 expression result in assay [1] (greater treatment concentrations) is “increased”. In addition, the EGR4-S expression result in assay [1] (higher concentrations) is reported as “reductions”; in assay [1] (higher concentrations, listed as Sulforaphane) it was “reducing EGR4-S expression”. For the same compound, the pHER2 expression result in assay [1] (higher concentrations) was “reductions”.
